Experimental data published in publication PMC11091879, “Inhibitors of the Thioesterase Activity of Mycobacterium tuberculosis Pks13 Discovered Using DNA-Encoded Chemical Library Screening” (ACS Infectious Diseases, 2024).

Legend:
Format in all cases: cell-based, Mycobacterium tuberculosis
[1] = system: H37Rv Pks13-TE R1563H mutant
[2] = system: H37Rv Pks13-TE A1561 V mutant
[3] = system: H37Rv Pks13-TE A1564D mutant
[4] = system: H37Rv Pks13-TE N1640K mutant
[5] = system: H37Rv Pks13-TE V1537A mutant
[6] = system: H37Rv Pks13-TE V1687F mutant
[7] = system: H37Rv Pks13-TE Y1674C mutant
[8] = system: H37Rv Pks13-TE Y1686C mutant
WT H37Rv = system: WT H37Rv

Row | SMILES | Fold Change in MIC (Mutant MIC/WT H37Rv MIC) [1] [fold] | Fold Change in MIC (Mutant MIC/WT H37Rv MIC) [2] [fold] | Fold Change in MIC (Mutant MIC/WT H37Rv MIC) [3] [fold] | Fold Change in MIC (Mutant MIC/WT H37Rv MIC) [4] [fold] | Fold Change in MIC (Mutant MIC/WT H37Rv MIC) [5] [fold] | Fold Change in MIC (Mutant MIC/WT H37Rv MIC) [6] [fold] | Fold Change in MIC (Mutant MIC/WT H37Rv MIC) [7] [fold] | Fold Change in MIC (Mutant MIC/WT H37Rv MIC) [8] [fold] | frequency of resistance (FOR) (WT H37Rv)
1 | CO[C@H]1/C=C/O[C@@]2(C)Oc3c(C)c(O)c4c(O)c(c(/C=N/N5CCN(C)CC5)c(O)c4c3C2=O)NC(=O)/C(C)=C\C=C\[C@H](C)[C@H](O)[C@@H](C)[C@@H](O)[C@@H](C)[C@H](OC(C)=O)[C@@H]1C [Rifampicin, reference compound] | 0.9 | 1.2 | 0.8 | 1.5 | 1.3 | 1.2 | 1.6 | 1 | –
2 | COc1ccc(OC)c(-c2ccc(-c3cn(CCc4ccc(C(=O)N(C)C)cc4)nn3)cn2)c1 [X20404] | >63 | 40 | >63 | 37 | >63 | >63 | >63 | 19 | 4.7 × 10^–7
3 | Cc1cc(C(=O)NCc2ccncc2)nc(N2CCC(C(=O)N3CCN(C(=O)c4cnc5c(C)cccc5c4)CC3)CC2)n1 [X21429] | 1.6 | >57 | 17 | >57 | 8.8 | 2.3 | 18 | 3.8 | –
